Data taken from ChEMBL document CHEMBL1156829 (Proc Natl Acad Sci U S A, 2008).
pEC50: −log10 of the molar value.

Experiments:
Plasmodium falciparum [1] = assay: NOVARTIS: Inhibition of Plasmodium falciparum W2 (drug-resistant) proliferation in erythrocyte-based infection assay; type: functional, organism-based; details: Plasmodium falciparum, W2; read-out: EC50
Plasmodium falciparum [2] = assay: NOVARTIS: Inhibition of Plasmodium falciparum 3D7 (drug-susceptible) proliferation in erythrocyte-based infection assay; type: functional, organism-based; details: Plasmodium falciparum, 3D7
[3] = NOVARTIS: Cytotoxicity against human hepatocellular carcinoma cell line (Huh7); type: toxicity, cell-based, Huh-7; details: Huh7 cells (hepatocellular carcinoma cell line)

Compound	pEC50 (Plasmodium falciparum [1])	pEC50 (Plasmodium falciparum [2])	CC50 [3] [nM]
c1ccc(/C2=N/c3ccccc3/N=C(/c3ccccc3)c3ccccc32)cc1	6.11	6.17	> 100000
Cc1cc(Nc2ccc(Cl)cc2)nc(NCc2ccccc2)n1	6.82	7.04	19600
Cc1cc(Nc2ccc(O)cc2)nc2cccc(O)c12	6.39	6.33	52400
CC(Nc1cc(C)ccn1)=C(C#N)C#N	6.10	6.26	> 100000
CNC(=O)c1ccc(NC(=O)Nc2ccc(C3=NCCCN3)cc2)cc1NC(=O)Nc1ccc(C2=NCCCN2)cc1	7.11	6.90	> 10000
Cc1cc(N2CCCCC2)nc2ccc(NC(=O)c3cccc([N+](=O)[O-])c3)cc12	6.10	6.36	> 100000
CCOc1ccc(C(=O)C[N+]2=C(C)c3ccc(C)n3CC2)cc1	6.12	5.79	> 100000
Cc1cnc(NC(=O)Nc2ccc(-c3ccc(NC(=O)Nc4ncc(C)s4)c(C)c3)cc2C)s1	7.12	7.47	> 10000
COc1ccc(N2CCN(C(CNC(=O)CC(C)C)c3ccco3)CC2)cc1 (stereo not given)	6.12	5.17	> 100000
CC(C)CN(C(C)C(=O)NC(CN1CCCC1)c1ccccc1)S(=O)(=O)Cc1ccccc1 (stereo not given)	7.12	7.22	> 10000
CCOC(=O)c1cc(-c2ccc(OC)cc2)n(CCC(=O)NCc2ccc(OC)cc2)c1C	6.11	6.01	> 100000
Nc1c(C(=O)Nc2ccc(Br)cc2)sc2nc3c(c(-c4cccs4)c12)CCC3	6.11	5.98	> 100000
COc1ccc(-c2cc(-c3ccc(C)cc3)[nH]n2)c(O)c1	6.70	5.82	25600
CC(NCc1cc(-c2ccccc2)ccc1O)c1cccc2ccccc12 (stereo not given)	7.11	5.92	> 10000
COc1ccc(NC2=C(c3ccc(C(F)(F)F)cc3)C(=O)c3ccccc32)cc1	6.11	6.47	> 100000
CCN(CC)c1ccc(NC(=O)c2cccs2)cc1	6.11	6.38	> 100000
C[n+]1c2n(c3ccccc31)N=C(c1ccccc1)CS2	6.46	6.34	45100
CCCCN(CC)CCNC(=O)c1cc2c(-c3ccc(Cl)cc3)nn(C)c2s1	6.49	7.05	39800
O=C(c1ccc(F)cc1Cl)N1CCN(c2nc(-c3cccs3)ns2)CC1	7.10	6.45	> 10000
OC(CN1CCN(CC=Cc2ccccc2)CC1)Cn1c2ccc(Br)cc2c2cc(Br)ccc21 (stereo not given)	6.37	5.71	> 54100
O=C(NNC(=O)c1csnn1)c1ccc(C(F)(F)F)cc1	6.10	6.19	> 100000
CC(=O)c1ccc2c3c(onc13)-c1ccccc1C2=O	6.10	5.65	> 100000
COc1ccc2cc(C)c3nnc(SCC(=O)N4CCN(C(=O)c5ccco5)CC4)n3c2c1	6.10	5.95	> 100000
CCN(CC)CCCN(Cc1cc2ccc(C)cc2[nH]c1=O)C(=S)Nc1cccc(Cl)c1	6.75	6.15	22100
CCOC(=O)CCC(=O)Oc1ccccc1-c1nc2cc(C)ccn2c1NC(C)(C)CC(C)(C)C	7.10	6.18	> 10000
CC(C)NCC(O)Cn1c2ccc(Cl)cc2c2cc(Cl)ccc21 (stereo not given)	7.41	6.74	4870
Cc1cc(Nc2ccc(C)c(C)c2)n2cnnc2n1	6.23	6.62	> 73900
CCOC(=O)C1CCCN(C(=O)c2c(C)oc3c2C(=O)c2ccccc2C3=O)C1 (stereo not given)	6.79	6.77	20400

Compound	pEC50 (Plasmodium falciparum [1])	pEC50 (Plasmodium falciparum [2])	CC50 [3] [nM]
O=c1c([N+](=O)[O-])cccn1Cc1ccc(F)cc1Cl	6.11	6.45	> 100000
CCCCCCC(=O)Oc1ccccc1-c1nc2ccccn2c1NC(C)(C)CC(C)(C)C	7.11	5.97	> 10000
COc1cccc(-c2cncc(-c3cncc(OC)c3)n2)c1	6.10	6.15	> 100000
CCCCCCC(=O)Oc1ccccc1-c1nc2cc(C)ccn2c1NC(C)(C)CC(C)(C)C	7.10	6.20	> 10000
O=C(NC1CCN(CC(O)CN(Cc2ccccc2)S(=O)(=O)c2ccccc2)C1)c1ccccc1 (stereo not given)	7.24	7.09	> 7270
CCNc1nc(NC(C)(C)C)nc(N2CCCC2)n1	6.10	5.84	> 100000
COc1ccc(-n2c(CNc3cc(C(F)(F)F)ccc3Cl)nnc2SCc2ccccc2Cl)cc1	6.10	6.14	> 100000
O=C(Nc1cccc(-c2nc3ccccc3[nH]2)c1)c1cc(=O)c2ccccc2o1	6.10	6.40	> 100000
CC(=O)N(C1=C(N(C)C)C(=O)c2ccccc2C1=O)c1cccc(F)c1	7.97	7.87	1360
COc1nncc(-c2cnnc(SC)n2)n1	6.66	6.63	28400
Cc1ccc(NC(=O)ON=C2CCCC2)cc1	6.44	6.39	45700
CCOC(=O)c1cnc2c(Cl)cccc2c1Nc1cccc(C(C)=O)c1	6.11	6.11	> 100000
CCc1ccc(-n2nnc(C(=O)Nc3ccccc3Cl)c2C)cc1	7.11	< 5.77	> 10000
COc1ccc2c(c1)CC1c3c(cc4c(c3-2)OCO4)CCN1C (stereo not given)	6.92	7.41	15600
COc1ccc2cc(CNCCc3cccc(Cl)c3)c(N3CCC(=O)N(CCN(C)C)CC3)nc2c1	7.11	< 5.90	> 10000
COc1ccccc1-n1c(C(C)N2CCN(C(=O)c3cc([N+](=O)[O-])cc([N+](=O)[O-])c3)C(C)C2)nc2ccccc2c1=O (stereo not given)	7.10	< 6.22	> 10000
COc1ccc(OC)c(-c2ccc(O)c(CNCCc3ccccc3)c2)c1	7.11	6.18	> 10000
COc1ccc(S(=O)(=O)N=C2C=C(Nc3ccccc3OC)C(=O)c3ccccc32)cc1	6.81	6.47	20100
CCc1ccc(Nc2cc(C)nc3nc(C)nn23)cc1	6.11	6.24	> 100000
COc1ccc(OC)c(NC(=O)COc2cc3ccccc3cc2C(=O)Nc2cc(OC)c(Cl)cc2OC)c1	6.11	5.94	> 100000
COC(=O)[C@@H]1C[C@H](NC(=O)c2[nH]c3ccc(Cl)cc3c2-c2ccccc2)CN1Cc1cc(OC)cc(OC)c1	6.10	< 4.94	> 100000
Cc1ccc(NC2=C(c3ccc(C(F)(F)F)cc3)C(=O)c3ccccc32)cc1F	6.10	6.27	> 100000
Cc1ccc2ccc(C(Nc3ccccn3)c3ccc(Br)cc3)c(O)c2n1 (stereo not given)	6.10	5.91	> 100000
Cc1c2cnn(CC(=O)O)c(=O)c2c(C)n1Cc1cccc(Cl)c1	6.10	< 4.90	> 100000
N=c1c2c(n(Cc3ccccc3)c3c1CCC3)CCC2	6.48	6.55	41200
Clc1nc(Nc2ccccc2)nc(N2CCCCC2)n1	6.42	< 4.90	48300
Cc1ccc(C=NNc2ncnc3nc[nH]c23)cc1	6.09	6.16	> 100000
